# Experimental data from PubChem BioAssay (NCI).
#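 Exposure lasted 48 hours, with cells grown in 96-well plates and compounds tested at five concentrations. GI50: concentration for 50% inhibition of growth. TGI: total growth inhibition.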
# What was measured:
# Assay in all cases: growth of human tumour cells (NCI), 48 h
# RXF 393 renal = system: RXF 393 renal
# NCI-H23 lung = system: NCI-H23 lung
# CCRF-CEM leukemia = system: CCRF-CEM leukemia
# RPMI-8226 leukemia = system: RPMI-8226 leukemia
# T-47D breast = system: T-47D breast
# TK-10 renal = system: TK-10 renal
# SF-295 CNS = system: SF-295 CNS
# NCI-H226 lung = system: NCI-H226 lung
# IGROV1 ovarian = system: IGROV1 ovarian
# SK-MEL-5 melanoma = system: SK-MEL-5 melanoma
# SN12C renal = system: SN12C renal
# COLO 205 colon = system: COLO 205 colon
# HCT-116 colon = system: HCT-116 colon
# SNB-19 CNS = system: SNB-19 CNS
# UACC-257 melanoma = system: UACC-257 melanoma
# M14 melanoma = system: M14 melanoma
# SF-268 CNS = system: SF-268 CNS
# U251 CNS = system: U251 CNS
# MALME-3M melanoma = system: MALME-3M melanoma
# OVCAR-8 ovarian = system: OVCAR-8 ovarian
# 786-0 renal = system: 786-0 renal
# SF-539 CNS = system: SF-539 CNS
# A498 renal = system: A498 renal
# K-562 leukemia = system: K-562 leukemia
# KM12 colon = system: KM12 colon
# SNB-75 CNS = system: SNB-75 CNS
# SK-MEL-28 melanoma = system: SK-MEL-28 melanoma
# MCF7 breast = system: MCF7 breast
# UACC-62 melanoma = system: UACC-62 melanoma
# BT-549 breast = system: BT-549 breast
# MOLT-4 leukemia = system: MOLT-4 leukemia
# NCI/ADR-RES ovarian = system: NCI/ADR-RES ovarian
# NCI-H460 lung = system: NCI-H460 lung
# A549 NSCLC = system: A549 NSCLC
# HS 578T breast = system: HS 578T breast
# SK-MEL-2 melanoma = system: SK-MEL-2 melanoma
# HCT-15 colon = system: HCT-15 colon
# HOP-62 NSCLC = system: HOP-62 NSCLC
# ACHN renal = system: ACHN renal
# LOX IMVI melanoma = system: LOX IMVI melanoma
# OVCAR-3 ovarian = system: OVCAR-3 ovarian
# EKVX NSCLC = system: EKVX NSCLC
# SR leukemia = system: SR leukemia
# SW-620 colon = system: SW-620 colon
# HL-60(TB) leukemia = system: HL-60(TB) leukemia
# CAKI-1 renal = system: CAKI-1 renal
# UO-31 renal = system: UO-31 renal
# MDA-MB-231 breast = system: MDA-MB-231 breast
# NCI-H522 lung = system: NCI-H522 lung
# MDA-MB-435 = system: MDA-MB-435
# DU-145 prostate = system: DU-145 prostate
# OVCAR-5 ovarian = system: OVCAR-5 ovarian
# OVCAR-4 ovarian = system: OVCAR-4 ovarian
# HCC-2998 colon = system: HCC-2998 colon
# HOP-92 NSCLC = system: HOP-92 NSCLC
# SK-OV-3 ovarian = system: SK-OV-3 ovarian
# HT29 colon = system: HT29 colon
# PC-3 prostate = system: PC-3 prostate
compound,measurement,setting,value
CS(=O)(=O)CCNCc1ccoc1-c1ccc2ncnc(Nc3ccc(OCc4ccccc4)cc3)c2c1,GI50,RXF 393 renal,7.25 µM
same,TGI,RXF 393 renal,> 25 µM
same,GI50,NCI-H23 lung,> 25 µM
same,TGI,NCI-H23 lung,> 25 µM
same,GI50,CCRF-CEM leukemia,17.7 µM
same,TGI,CCRF-CEM leukemia,> 25 µM
same,GI50,RPMI-8226 leukemia,> 25 µM
same,TGI,RPMI-8226 leukemia,> 25 µM
same,GI50,T-47D breast,7.86 µM
same,TGI,T-47D breast,> 25 µM
same,GI50,TK-10 renal,1.38 µM
same,TGI,TK-10 renal,> 25 µM
same,GI50,SF-295 CNS,> 25 µM
same,TGI,SF-295 CNS,> 25 µM
same,GI50,NCI-H226 lung,> 25 µM
same,TGI,NCI-H226 lung,> 25 µM
same,GI50,IGROV1 ovarian,> 17 µM
same,TGI,IGROV1 ovarian,> 25 µM
same,GI50,SK-MEL-5 melanoma,9.74 µM
same,TGI,SK-MEL-5 melanoma,> 25 µM
same,GI50,SN12C renal,> 25 µM
same,TGI,SN12C renal,> 25 µM
same,GI50,COLO 205 colon,24.8 µM
same,TGI,COLO 205 colon,> 25 µM
same,GI50,HCT-116 colon,> 25 µM
same,TGI,HCT-116 colon,> 25 µM
same,GI50,SNB-19 CNS,> 25 µM
same,TGI,SNB-19 CNS,> 25 µM
same,GI50,UACC-257 melanoma,> 25 µM
same,TGI,UACC-257 melanoma,> 25 µM
same,GI50,M14 melanoma,> 25 µM
same,TGI,M14 melanoma,> 25 µM
same,GI50,SF-268 CNS,> 25 µM
same,TGI,SF-268 CNS,> 25 µM
same,GI50,U251 CNS,> 25 µM
same,TGI,U251 CNS,> 25 µM
same,GI50,MALME-3M melanoma,> 25 µM
same,TGI,MALME-3M melanoma,> 25 µM
same,GI50,OVCAR-8 ovarian,> 25 µM
same,TGI,OVCAR-8 ovarian,> 25 µM
same,GI50,786-0 renal,> 25 µM
same,TGI,786-0 renal,> 25 µM
same,GI50,SF-539 CNS,> 25 µM
same,TGI,SF-539 CNS,> 25 µM
same,GI50,A498 renal,20.5 µM
same,TGI,A498 renal,> 25 µM
same,GI50,K-562 leukemia,14.4 µM
same,TGI,K-562 leukemia,> 25 µM
same,GI50,KM12 colon,> 25 µM
same,TGI,KM12 colon,> 25 µM
same,GI50,SNB-75 CNS,> 7.41 µM
same,TGI,SNB-75 CNS,> 25 µM
same,GI50,SK-MEL-28 melanoma,> 25 µM
same,TGI,SK-MEL-28 melanoma,> 25 µM
same,GI50,MCF7 breast,8.54 µM
same,TGI,MCF7 breast,> 25 µM
same,GI50,UACC-62 melanoma,> 25 µM
same,TGI,UACC-62 melanoma,> 25 µM
same,GI50,BT-549 breast,> 25 µM
same,TGI,BT-549 breast,> 25 µM
same,GI50,MOLT-4 leukemia,20.1 µM
same,TGI,MOLT-4 leukemia,> 25 µM
same,GI50,NCI/ADR-RES ovarian,> 25 µM
same,TGI,NCI/ADR-RES ovarian,> 25 µM
same,GI50,NCI-H460 lung,11.4 µM
same,TGI,NCI-H460 lung,> 25 µM
same,GI50,A549 NSCLC,> 25 µM
same,TGI,A549 NSCLC,> 25 µM
same,GI50,HS 578T breast,2.28 µM
same,TGI,HS 578T breast,> 25 µM
same,GI50,SK-MEL-2 melanoma,> 25 µM
same,TGI,SK-MEL-2 melanoma,> 25 µM
same,GI50,HCT-15 colon,> 25 µM
same,TGI,HCT-15 colon,> 25 µM
same,GI50,HOP-62 NSCLC,> 25 µM
same,TGI,HOP-62 NSCLC,> 25 µM
same,GI50,ACHN renal,> 25 µM
same,TGI,ACHN renal,> 25 µM
same,GI50,LOX IMVI melanoma,> 25 µM
same,TGI,LOX IMVI melanoma,> 25 µM
same,GI50,OVCAR-3 ovarian,> 25 µM
same,TGI,OVCAR-3 ovarian,> 25 µM
same,GI50,EKVX NSCLC,1.03 µM
same,TGI,EKVX NSCLC,> 25 µM
same,GI50,SR leukemia,> 16.9 µM
same,TGI,SR leukemia,> 25 µM
same,GI50,SW-620 colon,> 25 µM
same,TGI,SW-620 colon,> 25 µM
same,GI50,HL-60(TB) leukemia,24.4 µM
same,TGI,HL-60(TB) leukemia,> 25 µM
same,GI50,CAKI-1 renal,1.78 µM
same,TGI,CAKI-1 renal,> 25 µM
same,GI50,UO-31 renal,2.26 µM
same,TGI,UO-31 renal,> 25 µM
same,GI50,MDA-MB-231 breast,> 25 µM
same,TGI,MDA-MB-231 breast,> 25 µM
same,GI50,NCI-H522 lung,> 25 µM
same,TGI,NCI-H522 lung,> 25 µM
same,GI50,MDA-MB-435,> 25 µM
same,TGI,MDA-MB-435,> 25 µM
same,GI50,DU-145 prostate,> 25 µM
same,TGI,DU-145 prostate,> 25 µM
same,GI50,OVCAR-5 ovarian,> 25 µM
same,TGI,OVCAR-5 ovarian,> 25 µM
same,GI50,OVCAR-4 ovarian,> 25 µM
same,TGI,OVCAR-4 ovarian,> 25 µM
same,GI50,HCC-2998 colon,> 25 µM
same,TGI,HCC-2998 colon,> 25 µM
same,GI50,HOP-92 NSCLC,1.98 µM
same,TGI,HOP-92 NSCLC,> 25 µM
same,GI50,SK-OV-3 ovarian,1.5 µM
same,TGI,SK-OV-3 ovarian,> 25 µM
same,GI50,HT29 colon,9.55 µM
same,TGI,HT29 colon,> 25 µM
same,GI50,PC-3 prostate,> 25 µM
same,TGI,PC-3 prostate,> 25 µM
